Assay results from US20250199015A1, “CYCLIN-DEPENDENT KINASE 2 INHIBITORS FOR MEDICAL TREATMENT” (INCYCLIX BIO, LLC, priority 2022, published 2025).
“And” between values parts separate entries of the source, which are not always exact repeats. Equal entries are not always repeated. Structures can show the parent of a compound that is named as a salt. Marks after values point to notes of the source that are not given here.

Key:
[1] = Thermodynamic solubility in pH 1, 4.5 and 6.8 buffers; type: physicochemical; settings: for Solubility: 25° C., 24 hours
[2] = Dynamic Vapor Sorption (DVS); type: physicochemical; settings: for DVS uptake, first sorption cycle / DVS uptake, second sorption cycle: 25° C., to 90% RH
Protocol: Approximately 10-20 mg of sample was placed into a mesh vapor sorption balance pan and loaded into a DVS Advantage dynamic vapor sorption balance by Surface Measurement Systems. The sample was subjected to a ramping profile from 40-90% relative humidity (RH) at 10% increments, maintaining the sample at each step until a stable weight had been achieved (dm/dt 0.004%, minimum step length 30 minutes, maximum step length 500 minutes) at 25° C. After completion of the sorption cycle, the sample was dried using the same procedure to 0% RH and then a second sorption cycle back to 40% RH. Two cycles were performed. The weight change during the sorption/desorption cycles were plotted, allowing for the hygroscopic nature of the sample to be determined. XRPD analysis was then carried out on any solid retained.

[3] = Thermodynamic solubility in pH 1, 4.5 and 6.8 buffers; type: physicochemical
Protocol: The thermodynamic solubility of HCl Pattern 1 was determined in duplicate according to the following procedure. HCl Pattern 1 (20 mg) was weighed into 6×2 mL glass vials. Then, 1000 μL of pH 1 hydrochloride, pH 4.5 acetate and pH 6.8 phosphate buffers were added to individual vials in 100 μL aliquots to give white slurries at each pH value. […] The pH was re-recorded and adjusted where necessary. The samples were isolated by centrifuge filtration. […] The concentrations of the saturated solutions were determined by HPLC.
Buffer systems were added in 250 μL aliquots up to a total volume of 1 mL. The pH of each slurry was recorded and adjustments were made to the pH 1 system. No initial adjustment was made to the pH 4.5 or 6.8 system. An aliquot of the slurry was analyzed by XRPD. […] The pH was checked and adjusted where required. The slurries were filtered by centrifugation. The solids were isolated and analyzed by XRPD. The solutions were analyzed by HPLC to determine concentration.

[4] = Disproportionation study in water; type: physicochemical
Protocol: A study disproportionation was carried out using the following procedure. […] The pH was recorded, and the suspension was stirred for ca. 24 hours at 25° C. After 24 hours the pH was recorded, and the slurry was filtered by centrifugation. The solids were isolated and analyzed by XRPD. The solution was isolated and analyzed by HPLC to determine concentration.

[5] = Hydration study in ethanol:water mixtures; type: physicochemical; settings: 24 hours; for XRPD: solids from slurry
Protocol: A hydration study was carried out on the material according to the following procedure. […] Ethanol: water solutions (Table 77) were added in 250 μL aliquots to a total volume of 1 mL. The slurries were stirred at 25° C. for 24 hours. After 24 hours the slurries were filtered by centrifugation. The solids were isolated and analyzed by XRPD. The solution was isolated and analyzed by HPLC to determine concentration.

[6] = Salt screen storage at 40° C./75% RH, XRPD form; type: physicochemical; settings: after storage at 40° C./75% RH, scale up from ethyl acetate
Protocol: XRPD analysis was carried out on any isolated solids or gums as described in Example 10 below. The XRPD plate, and the isolated solids, were dried at 40° C. for ca. 24 hours and re-analyzed by XRPD. The XRPD plate was further dried at 40° C./75% RH for ca. 24 hours and XRPD analysis was repeated.
After three days, observations were recorded and solids were isolated by centrifugation. The wet solids were analyzed by XRPD. Solids were dried at 40° C. under vacuum for 72 hours and re-analyzed by XRPD. Solids were dried at 40° C./75% RH for 18 hours and re-analyzed by XRPD.

[7] = 7-day indicative stability (XRPD, HPLC purity); type: physicochemical; settings: for change in form after 7 days / purity change after 7 days: ambient
Protocol: The stability of HCl Pattern 1 was determined using the following procedure. HCl Pattern 1 (30 mg) was weighed into 3×2 mL glass vials. The three vials were then stored under the following conditions for 7-days: • Ambient temperature, humidity and light (open vial); • 40° C./75% RH (open vial); • 80° C. (closed vial).
After 7 days, each sample was analyzed by: XRPD to assess form changes and HPLC to determine the purity of the samples.
After 7 days at each storage condition, the solids were analyzed by XRPD to assess any changes in solid form and by HPLC to determine purity.

[8] = system: caspase 3/7 in Hs68 cells; assay: CaspaseGlo-3/7 in normal fibroblasts; type: cell-based; settings: 300 pM to 10 μM; 24, 48 or 72 hours
Protocol: The Hs68 Normal foreskin fibroblast cell line was grown in DMEM-high glucose/1× Glutamax/10% fetal bovine serum and was plated at 1,000 cells/well in Corning 96 well white wall/clear bottom tissue culture treated plates. […] Plates were removed from incubator at each specified timepoint and treated with CaspaseGlo-3/7 (Promega, Inc) following manufacturer specifications. Plates were then read on Biotech luminometer with 1 sec/well integration. Results were converted to Microsoft Excel and transferred to GraphPad Prism for Analysis (FIG. 5A-C).

[9] = system: caspase 3/7 in H526 cells; assay: CaspaseGlo-3/7 activation; type: cell-based, human
Protocol: (§1) Plates were removed from incubator and treated with CaspaseGlo-3/7 (Promega, Inc) following manufacturer specifications. Plates were then read on a Biotech luminometer with 1 sec/well integration. Results were converted to Microsoft Excel and transferred to GraphPad Prism for Analysis (FIG. 22D).
as §1, with “from the” for “from”, “incubator at each specified timepoint” for “incubator”, “on” for “on a”, “27A-C).” for “22D).”

[10] = Solvate formation or form change in ethanol (thermal cycling); type: physicochemical; settings: three days, 40° C./5° C.
Protocol: HCl Pattern 1 was stirred in ethanol to assess any solvation or form change in the solvent system. The following procedure was carried out. HCl Pattern 1 (20 mg) was suspended in 1 mL of ethanol. The suspension was thermally cycled for three days according to the following cycle: • Heat to 40° C. at a rate of 0.1° C./min; • Hold at 40° C. for one hour; • Cool to 5° C. at a rate of 0.1° C./min; • Hold at 5° C. for one hour.
After three days, observations were recorded, and solids were isolated by centrifugation. Wet solids were analyzed by XRPD.

[11] = pH 6.8 (Phosphate) buffer, 25° C., 24 hours
[12] = residual solids, pH 1 (HCl) buffer, 25° C., 24 hours
[13] = 7 days, 40° C./75% RH (open vial)
[14] = 7 days, ambient temperature, humidity and light (open vial)

NS(=O)(=O)c1ccc(Nc2ncc3cc4n(c3n2)C2(CCCCC2)C(=O)NN4)cc1.O=P(O)(O)O [phosphate Pattern 7]
XRPD ([1]; 24 h Solubility at 37° C., pH 1.2, residual solids): HCl Pattern 1
Solubility ([1]; pH 1 (HCl) buffer): 3.8 µg/mL and 2.7 µg/mL
Solubility ([1]; pH 4.5 (Acetate) buffer): 5.8 µg/mL and 5.2 µg/mL
form post DVS by XRPD [2]: no observable form change had occurred
hygroscopicity (DVS) [2]: moderately hygroscopic
DVS uptake, first sorption cycle [2]: 4.76%
DVS uptake, second sorption cycle [2]: 5.18%
DVS Moisture Uptake at 80% RH ([2]; first sorption cycle): 4.76 wt. %
XRPD ([2]; post DVS): Phosphate Pattern 7*
DVS Moisture Uptake at 80% RH ([2]; second sorption cycle): 5.18 wt. %
XRPD ([3]; 24 h Solubility at 37° C., pH 4.5, residual solids): Free Base Pattern 1
XRPD ([3]; 24 h Solubility at 37° C., pH 6.8, residual solids): Free Base Pattern 1
thermodynamic solubility in three buffer systems ([3]; pH 1, 4.5, 6.8): low aqueous solubility
residual solids by XRPD ([3]; pH 1, 25° C., 24 hours): mixture of HCl Pattern 1 and free base
24 h Solubility at 37° C., Concentration ([3]; pH 4.5): 5.2 µg/mL
residual solids by XRPD ([3]; pH 4.5, 25° C., 24 hours): dissociation to free base
24 h Solubility at 37° C., Concentration ([3]; pH 6.8): 4.2 µg/mL
Solubility [3, 11]: 4.2 µg/mL
residual solids by XRPD ([3]; pH 6.8, 25° C., 24 hours): dissociation to free base
XRPD [3, 12]: HCl Pattern 1
XRPD ([3]; residual solids, pH 4.5 (Acetate) buffer, 25° C., 24 hours): Free base
XRPD ([3]; residual solids, pH 6.8 (Phosphate) buffer, 25° C., 24 hours): Free base
form after stirring in water ([4]; 25° C., ca. 24 hours): indicative of disproportionation
XRPD ([4]; slurry at 25° C. in water, 24 hours): Free Base Pattern 10
form after stirring in ethanol:water mixtures ([5]; 25° C.): disproportionation of the salt to free base material
Solubility ([5]; Ethanol:Water (63.6:36.4 % v/v), Calc Aw 0.745, 25° C.): 987.8 µg/mL
Solubility ([5]; Ethanol:Water (92.9:7.1 % v/v), Calc Aw 0.507, 25° C.): 1664.8 µg/mL
Solubility ([5]; Ethanol:Water (98.4:1.6 % v/v), Calc Aw 0.257, 25° C.): 1217 µg/mL
XRPD ([5]; Ethanol:Water (63.6:36.4), Aw 0.745, 25° C.): Free Base Pattern 2
XRPD ([5]; Ethanol:Water (92.9:7.1), Aw 0.507, 25° C.): Free Base Pattern 3
XRPD ([5]; Ethanol:Water (98.4:1.6), Aw 0.257, 25° C.): Free Base Pattern 3
XRPD [6]: Pattern 7*
HPLC Purity ([7]; 7 Day Stability, 40° C./75% RH): 89.63 % area
HPLC Purity ([7]; 7 Day Stability, 80° C.): 98.08 % area
HPLC Purity ([7]; 7 Day Stability, Ambient, Light): 97.90 % area
HPLC Purity [7, 13]: 89.63 % w/w
Observation [7, 13]: Faint Pink Solid
XRPD [7, 13]: Phosphate Pattern 7*
HPLC Purity ([7]; 7 days, 80° C. (closed vial)): 98.08 % w/w
Observation ([7]; 7 days, 80° C. (closed vial)): White Solid
XRPD ([7]; 7 days, 80° C. (closed vial)): Phosphate Pattern 7*
HPLC Purity [7, 14]: 97.87 % w/w
Observation [7, 14]: Faint Yellow Solid
XRPD [7, 14]: Phosphate Pattern 7*
change in form after 7 days ([7]; 40° C./75% RH, 80° C.): no observable change in form
purity change after 7 days ([7]; 40° C./75% RH, 80° C.): significant decrease in purity

CN[C@@H]1C[C@H]2O[C@@](C)([C@@H]1OC)n1c3ccccc3c3c4c(c5c6ccccc6n2c5c31)C(=O)NC4 [staurosporine]
caspase 3/7 activation [8]: substantial increase
caspase 3/7 activation ([9]; 24 hours): robust caspase 3/7 activation
IC50 ([9]; Homo sapiens, NCI-H526, 72 hours): 6 nM

NS(=O)(=O)c1ccc(Nc2ncc3cc4n(c3n2)C2(CCCCC2)C(=O)NN4)cc1 [HCl Pattern 1]
form after thermal cycling in ethanol [10]: produced HCl Pattern 2
form post DVS by XRPD [2]: no observable form change had occurred
hygroscopicity (DVS) [2]: moderately hygroscopic
DVS uptake, first sorption cycle [2]: 5.15%
DVS uptake, second sorption cycle [2]: 5.10%
Solubility ([3]; pH 1 (HCl) buffer, 25° C., 24 hours): 2.7 µg/mL
solubility at 24 h ([3]; pH 1 hydrochloride buffer, 25 °C, pH 1, simulated gastric fluid, thermodynamic from solid, pH 1 (HCl) buffer, 24 hours): 3.8 µg/mL
Solubility ([3]; pH 4.5 (Acetate) buffer, 25° C., 24 hours): <LOQ
residual solids by XRPD ([3]; pH 4.5, 25° C., 24 hours): formation of free base
Solubility [3, 11]: <LOQ
residual solids by XRPD ([3]; pH 6.8, 25° C., 24 hours): formation of free base
XRPD [3, 12]: 1
HPLC Purity [7, 13]: 97.98 % w/w
Observation [7, 13]: White Solid
XRPD [7, 13]: HCl Pattern 1
HPLC Purity ([7]; 7 days, 80° C. (closed vial)): 96.97 % w/w
Observation ([7]; 7 days, 80° C. (closed vial)): White Solid
XRPD ([7]; 7 days, 80° C. (closed vial)): HCl Pattern 1
HPLC Purity [7, 14]: 98.02 % w/w
Observation [7, 14]: Yellow Solid
XRPD [7, 14]: HCl Pattern 1
change in form after 7 days ([7]; 40° C./75% RH, 80° C.): no observable change in form
purity change after 7 days ([7]; 40° C./75% RH, 80° C.): decrease in purity was noted for all samples
